Where “and” joins values, the source holds several entries; their conditions need not be identical. Identical values can stand only once. Like-named read-outs stand apart in the source and are kept apart here. Peptide text beside a SMILES is read from it. * marks the point of attachment. NH(4-amidinobenzyl) = N=C(N)c1ccc(CN*)cc1; X2 = N=C(N)NC/C=C/CN*
Experiments:
[1] = test system: DU145 cells; assay: Stability following incubation with DU145 cells; type: in vitro ADME, human
Method: (§1) Multiple multi-Leu variants described in Table 1 were tested for their stability following incubation with DU145 cells, wherein their cellular stability and plasmatic half-life was measured.
(§2) Consequently, the multi-Leu peptide was further modified by the addition of amino acid analogues and/or with pseudo peptide bounds which increase the protection of the modified peptides from peptidase and protease degradation. Gains in stability were also measured in vitro in tumoral prostatic human cells (DU145). Increase in stability of the variants was also measured in vivo (FIG. 4).

[2] = test system: LNCaP cells; assay: Cell cycle analysis (DNA content, flow cytometry) of LNCaP cells; type: cell-based; settings: for Cell cycle effect (in words): 100 μM or 200 μM, FIG. 11; for Cells in G0/G1 phase / Cells in G2/M phase / Cells in S phase / Cells in Sub-G1 (hypodiploid DNA content, apoptotic): 96 hours
Method: In order to obtain further support for the antiproliferation effects observed, a DNA content analysis was performed on LNCaP treated cells with 100 μM or 200 μM of ML-peptide and the modified analog […] (FIG. 11). […] Following a 200 μM treatment with the Ac-[D-Leu]LLLRVKR-NH2, a 10% increase in the G0/G1 population was observed along with an increased in cells with hypodiploid DNA content (sub-G1) proportions, which represent apoptotic cells.
To perform cell cycle analysis on LNCaP, 4×10^5 cells are seeded in 10 cm culture dish and grown for 24 hours without treatment. Cells are then treated with vehicle (0.1% DMSO) or with 100 μM or 200 μM of peptides Ac-LLLLRVKR-NH2 or Ac-[D-Leu]LLLRVKR-NH2. Treatments are carried out in complete medium (10% FBS) for a period of 96 hours and cell media is changed every 24 hours to offset peptide degradation. Cells are harvested using trypsin, washed once with PBS, resuspended in 0.5 mL PBS and fixed by drop wise addition of 1.5 mL of ice-cold ethanol. After a 30 minutes incubation at room temperature, cells are washed with PBS and DNA staining is performed in 20 mM HEPES pH 7.2, 0.16M NaCl, 1 mM EGTA buffer containing 10 μg/mL of RNAseA and 10 μg/mL of propidium iodine.
Flow cytometry is performed using a FACScan™ cytometer (Becton Dickinson, Mountain View, Calif.) equipped with a 15 mW argon ion laser tuned at 488 nm. A minimum of 10 000 gated events by sample are acquired. Forward and side scatter signals are used to establish the live gate to exclude debris and cell clumps and a second live gate is set using the FL3-A and FL3-W parameters of the doublet discrimination module (DDM), allowing single cell measurements. The percentages of cells in different phases of cell cycle are calculated by ModFit software (Verity Software House, Topsham, Me.).

[3] = biological target: T1, PACE4 (Homo sapiens, UniProt P29122); assay: Inhibition constant (Ki) for PACE4; type: biochemical
T1 sequence (P29122 150-969): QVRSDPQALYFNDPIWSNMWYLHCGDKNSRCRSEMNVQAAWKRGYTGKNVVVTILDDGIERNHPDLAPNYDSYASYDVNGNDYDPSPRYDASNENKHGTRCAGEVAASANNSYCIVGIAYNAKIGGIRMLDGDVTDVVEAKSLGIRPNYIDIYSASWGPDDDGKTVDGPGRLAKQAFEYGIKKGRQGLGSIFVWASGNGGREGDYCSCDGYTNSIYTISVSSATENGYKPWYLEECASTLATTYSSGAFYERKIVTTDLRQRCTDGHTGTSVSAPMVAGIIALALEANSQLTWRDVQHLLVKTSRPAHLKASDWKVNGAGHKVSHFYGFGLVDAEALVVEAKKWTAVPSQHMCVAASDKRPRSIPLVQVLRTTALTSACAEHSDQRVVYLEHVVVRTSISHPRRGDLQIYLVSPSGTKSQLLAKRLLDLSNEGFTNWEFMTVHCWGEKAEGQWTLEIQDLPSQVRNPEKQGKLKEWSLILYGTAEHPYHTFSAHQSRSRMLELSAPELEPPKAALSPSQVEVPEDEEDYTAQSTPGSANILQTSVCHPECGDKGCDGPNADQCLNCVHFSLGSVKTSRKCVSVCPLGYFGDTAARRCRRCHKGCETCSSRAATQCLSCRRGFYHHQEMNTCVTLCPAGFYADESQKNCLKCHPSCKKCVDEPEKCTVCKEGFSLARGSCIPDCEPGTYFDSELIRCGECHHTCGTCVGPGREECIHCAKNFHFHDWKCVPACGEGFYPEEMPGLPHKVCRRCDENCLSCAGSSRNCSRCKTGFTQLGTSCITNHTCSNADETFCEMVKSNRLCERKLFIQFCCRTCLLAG

[4] = test system: DU145 cells; settings: MTT
[5] = test system: LNCaP tumors; assay: Intratumoral treatment of LNCaP tumors in immunosuppressed mice; settings: LNCaP tumors, FIG. 9
[6] = test system: LNCaP cells; settings: MTT
[7] = Stability following incubation with DU145 cells; type: in vitro ADME, human; settings: human, DU145 cells, Table 1, read-out: Stability (% remaining after 48 h)
Method: as §1, §2

[8] = biological target: furin (Homo sapiens, UniProt P09958); assay: Inhibition constant (Ki) for furin; type: biochemical
[9] = Plasmatic half-life / degradation by plasmatic protease; type: in vitro ADME; settings: for half-life: plasma
Method: as §1
Stabilisation strategy for multi-Leu variants was also assessed in presence of plasmatic protease. 8 variants protected at their N-terminal leucines were tested in order to establish their level of degradation since it is expected that N-terminal degradation will occur in absence of any modifications other than acetylation. Variants tested with azaβ3-leucine at each individual position and “click” bonds between the different leucines of the N-terminal part of the variants were protected against degradation (see FIG. 3 for modifications).

[10] = Fig. 4
Source text: Table printed on a drawing sheet, Fig. 4
The patent's description of the figure: FIG. 4 illustrates plasmatic half-life curves measured for multi-Leu variants tested.
First reader's note: The table also serves as legend for the numbered curves of the adjacent plot; the unit (h) and ± errors stand in the cells, with decimal commas as printed.

[11] = test system: PC3 cells; assay: MTT proliferation assay in PC3 cells; type: cell-based; settings: FIG. 1B
[12] = read-out: IC50 (μM) DU145, Table 4, DU145 cells

Chain of furin (P09958 108-794): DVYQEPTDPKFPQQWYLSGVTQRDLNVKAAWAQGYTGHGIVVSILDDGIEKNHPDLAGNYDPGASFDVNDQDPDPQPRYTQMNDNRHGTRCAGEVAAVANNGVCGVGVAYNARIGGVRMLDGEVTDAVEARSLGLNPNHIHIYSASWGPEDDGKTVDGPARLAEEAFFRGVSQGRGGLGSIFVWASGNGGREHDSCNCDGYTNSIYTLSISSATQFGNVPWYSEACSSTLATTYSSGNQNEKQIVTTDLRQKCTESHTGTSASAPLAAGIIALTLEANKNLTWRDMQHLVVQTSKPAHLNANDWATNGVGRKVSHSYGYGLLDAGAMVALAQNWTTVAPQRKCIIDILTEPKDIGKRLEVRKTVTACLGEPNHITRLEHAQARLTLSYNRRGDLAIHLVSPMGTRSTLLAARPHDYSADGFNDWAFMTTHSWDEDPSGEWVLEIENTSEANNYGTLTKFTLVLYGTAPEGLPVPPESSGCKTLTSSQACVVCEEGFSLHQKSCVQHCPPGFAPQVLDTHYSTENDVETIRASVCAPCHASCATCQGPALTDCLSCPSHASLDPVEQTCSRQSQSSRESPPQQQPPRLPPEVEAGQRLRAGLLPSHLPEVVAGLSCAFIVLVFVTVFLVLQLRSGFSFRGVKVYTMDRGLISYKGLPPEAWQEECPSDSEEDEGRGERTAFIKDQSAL

Compound	Stability (% remaining after 48 h) ([1]; Table 2)	Cell cycle effect (in words) [2]	Cells in G0/G1 phase ([2]; 100 μM) [%]	Cells in G2/M phase ([2]; 100 μM) [%]	Cells in S phase ([2]; 100 μM) [%]	Cells in Sub-G1 (hypodiploid DNA content, apoptotic) ([2]; 100 μM) [%]	Cells in G0/G1 phase ([2]; 200 μM) [%]	Cells in G2/M phase ([2]; 200 μM) [%]	Cells in S phase ([2]; 200 μM) [%]	Cells in Sub-G1 (hypodiploid DNA content, apoptotic) ([2]; 200 μM) [%]	Ki ([3]; Ki for PACE4, Table 1)	Selectivity index PACE4/furin ([3]; Table 3)	IC50 [4, 12] [µM]	remaining at 48 h [7] [%]	Ki [8] [nM]	half-life ([9]; Table 1) [h]	half-life ([9]; Table 2) [h]	further results
CC(=O)N[C@@H](CC(C)C)C(=O)N[C@@H](CC(C)C)C(=O)N[C@@H](CC(C)C)C(=O)N[C@@H](CC(C)C)C(=O)N[C@@H](CCCN=C(N)N)C(=O)N[C@H](C(=O)N[C@@H](CCCCN)C(=O)NCc1ccc(C(=N)N)cc1)C(C)C [ML-[AMBA]^P1, Ac-LLLLRVK-[AMBA]] (Ac-LLLLRVK-{NH(4-amidinobenzyl)})	≃80%	–	–	–	–	–	–	–	–	–	–	–	–	–	–	–	–	Stability (% remaining after 48 h) ([1]; Table 1): ≃80%
CC(=O)N[C@H](CC(C)C)C(=O)N[C@@H](CC(C)C)C(=O)N[C@@H](CC(C)C)C(=O)N[C@@H](CC(C)C)C(=O)N[C@@H](CCCNC(=N)N)C(=O)N[C@H](C(=O)N[C@@H](CCCCN)C(=O)N[C@@H](CCCNC(=N)N)C(N)=O)C(C)C [[D-Leu]^P8-ML, Ac-[D-Leu]-LLLRVKR-NH2]	–	dose-dependant G0/G1 accumulation and S phase decrease	79.3 ± 1.0	8.9 ± 0.5	11.8 ± 0.5	0.4 ± 0.6	83.4 ± 0.0	8.3 ± 0.1	8.4 ± 0.1	11.8 ± 2.7	52 nM and 33 nM	≈20	66 ± 26	48	516	~9	6.3	Cells with hypodiploid DNA content (sub-G1) proportions (in words) ([2]; 200 μM treatment): increased; Increase in the G0/G1 population ([2]; 200 μM treatment): 10%; Ki ([3]; Ki PACE4 (nM), Table 3): 3 nM; Plasmatic concentration of PSA (in words) [5]: decreased; IC50 ([6]; read-out: IC50 (μM) LNCaP, Table 4, LNCaP cells): 181 ± 59 µM; plasmatic half-life ([9]; Table 1): 6.3 h
Ac-LLLLRVKR-NH2 [6: ML]	–	–	–	–	–	–	–	–	–	–	–	–	–	–	–	–	–	plasmatic half-life [10]: 2,1±0,2h
CC(=O)N[C@@H](CC(C)C)C(=O)N[C@@H](CC(C)C)C(=O)N[C@@H](CC(C)C)C(=O)N[C@@H](CC(C)C)C(=O)N[C@@H](CCCNC(=N)N)C(=O)N[C@H](C(=O)N[C@@H](CCCCN)C(=O)NC/C=C/CNC(=N)N)C(C)C [ML-[ΔR-CO2]^P1, Ac-LLLLRVK-[ΔR-COO]] (Ac-LLLLRVK-X2)	70%	–	–	–	–	–	–	–	–	–	–	11.4	–	70	–	–	–	Selectivity for PACE4 over furin (time more selective) [3]: 11.4; Ki ([3]; Table 1, read-out: Ki for PACE4): 14 nM; Ki ([8]; Table 3, read-out: Ki Furin): 160 nM
Ac-LLLLRVKR-NH2 [Multi-Leu (ML), Ac-LLLLRVKR-NH2, reference compound]	56%	dose-dependant G0/G1 accumulation and S phase decrease	79.7 ± 0.4	8.4 ± 0.6	11.9 ± 0.2	1.0 ± 0.0	81.5 ± 0.0	9.2 ± 0.1	9.3 ± 0.1	4.8 ± 1.7	38 nM	19	187 ± 44	56	722	2.1 ± 0.2	2.1 ± 0.2	Inhibition of PC3 cell proliferation (in words) [11]: very poor inhibition; IC50 ([4]; read-out: IC50 cellular proliferation DU145, FIG. 1B/1C): 103 ± 29 µM; IC50 ([6]; read-out: IC50 cellular proliferation LNCaP, FIG. 1B/1D): 180 ± 57 µM
